According to article PMC5760527, “Connexin 43 Hemichannel as a Novel Mediator of Sterile and Infectious Inflammatory Diseases” (Scientific Reports, 2018):
Where no end group is shown, it is not given here.

Key:
[1] = tested on: macrophage Cx43 hemichannel activities, RAW 264.7 cells; assay: Lucifer Yellow dye uptake, hemichannel permeability, calcium-depleted; type: cell-based, murine; details: LPS 0.5 μg/ml, 16 h, LY 15 min, P < 0.05 versus +LPS
From the text: Because connexon is the structural unit for both hemichannel (1 connexon) and gap junction (2 connexons from opposing cells), which are both permeable to similar molecular weight molecules, such as the Lucifer yellow (LY). Thus, the LY dye uptake could be used to determine the channel permeability of both hemichannel (as indicated by the rate of LY entry into the cells) and gap junction channels (as judged by the distance of intercellular LY diffusion). The LY dye uptake assay relied on the ability of this dye present in the extracellular milieu to cross the plasma membrane and became concentrated inside of the cell, which could be quantified by fluorescence microscopy. To determine the effects of Cx43 mimetic peptides on hemichannel permeability, RAW 264.7 cells were subjected to LPS stimulation (0.5 µg/ml, 16 h) before replacing the medium with fresh DMEM containing various Cx43 mimetic peptides, GAP26 (100 µM), TAT-GAP19 (200 µM) or P5 (20 µM). Following a brief incubation (15 min), EGTA (1 mM) was added to deplete free calcium prior to the addition of LY dye (1%). Fifteen min later, cells were fixed with 2% paraformaldehyde, and the number of LY-positive cells was counted. The ratio of LY-positive cells vs. total cell counts (DAPI staining) was used as the measurement of hemichannel permeability.

[2] = tested on: Balb/c mice, polymicrobial sepsis (CLP); assay: CLP-induced sepsis survival; type: in vivo; details: i.p., +6, +18 and +36 h post CLP, two weeks; for survivors: saline 50%; for animal survival (in words): CLP, Balb/c mice
From the text: This study was approved and performed in accordance with the guidelines of the Institutional Animal Care and Use Committee of the Feinstein Institute for Medical Research, Manhasset, New York, USA (Animal Protocol #2008-033, Approval date: September 10, 2014). To evaluate the effect of various Cx43 mimetic peptides on sepsis lethality, a clinically relevant animal model of sepsis induced by cecal ligation and puncture (CLP) was employed. Briefly, the cecum of Balb/c mice was ligated at about 5 mm from the cecal tip, and then punctured once with a 22-gauge needle. GAP26, TAT-GAP19 or P5 peptides were administered intraperitoneally into mice at indicated doses and time points, and animal survival rates were monitored for up to 2 wks. The Kaplan-Meier method was used to compare the differences in mortality rates between groups.

[3] = tested on: Cx43 GJ and hemichannel activities; details: cited from earlier work
From the text: The establishment of HMGB1 as a critical mediator of various inflammatory diseases has prompted an on-going search for endogenous and exogenous modulators of HMGB1 secretion. […] We thus evaluated the alteration of macrophage hemichannel activities in the absence or presence of Cx43 mimetic peptides previously shown to be capable of blocking Cx43 hemichannels. […] Because Cx43 GJ and hemichannels often co-exist in plasma membranes, a definitive elucidation of the functions of Cx43 GJ or hemichannels has been quite challenging. First, genetic deletion would eliminate both channels. Secondly, these two types of Cx channels are susceptible to a similar array of chemical blockers. Latel ...

[4] = target: T1, Cx43 EL1 peptide (Homo sapiens, UniProt P17302); assay: Surface Plasmon Resonance, Cx43 EL1 peptide; type: binding; details: Cx43 EL1 peptide
T1 construct: synthetic full-length Cx43 EL1 or EL2 peptide as judged by the Surface Plasmon Resonance Analysis
T1 sequence (P17302 45-76 limits assumed): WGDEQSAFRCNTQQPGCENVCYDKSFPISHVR

[5] = tested on: PKR phosphorylation; details: cited from earlier work
From the text: (§1) The establishment of HMGB1 as a critical mediator of various inflammatory diseases has prompted an on-going search for endogenous and exogenous modulators of HMGB1 secretion.

[6] = tested on: HMGB1 secretion; details: cited from earlier work
From the text: as §1

YGRKKRRQRRRK-QIEIKKFK [TAT-GAP19]
effect on LY dye uptake (hemichannel activities) ([1]; TAT-GAP19 200 μM): elevated LY dye uptake
survivors ([2]; 15 mg/kg): 60%
survivors ([2]; 120 mg/kg): 20%
animal survival (in words) [2]: decreased animal survival particularly when given at a comparable higher dose

VCYDKSFPISHVR [GAP26, Cx43 mimetic peptide GAP26 (…), first extracellular loop]
interruption of GJ formation ([3]; after prolonged application, no reference given): interruption of GJ formation after prolonged application
inhibition of Cx43 hemichannel activities or gap junction formation [3]: inhibiting Cx43 hemichannel activities or gap junction formation
effect on endotoxin-induced hemichannel activities (LY dye uptake) ([1]; GAP26 100 μM): significant impairment of the endotoxin-induced elevation of hemichannel activities
animal survival (in words) [2]: reproducibly increased animal survival rates

QPGCEN [P4]
Kd [4]: 20 µM

CC1(C)[C@@H](OC(=O)CCC(=O)O)CC[C@]2(C)[C@H]3C(=O)C=C4[C@@H]5C[C@@](C)(C(=O)O)CC[C@]5(C)CC[C@@]4(C)[C@]3(C)CC[C@@H]12 [carbenoxolone]
blocking of Cx43 GJ and hemichannel activities ([3]; no reference given): blocking Cx43 GJ and hemichannel activities
endotoxin-induced PKR phosphorylation [5]: effectively prevented
PKR-mediated HMGB1 secretion [6]: effectively prevented
